Reference: ChEMBL document CHEMBL3885861, “Open TG-GATES”

Organism: Rattus norvegicus
Assay: Open TG-GATES - Regimen: Daily Repeat
Assay type: toxicity, organism-based, Sprague-Dawley
Design: regimen Daily Repeat, gender Male, age 6 weeks
Details: in vivo, po, 0 mg/kg, route gavage, dose level Control; for APTT / Bas / Eos / Fbg / Hb / Ht / Lym / MCH / MCHC / MCV / Mono / Neu / PT / Plat / RBC / Ret / WBC: tissue Blood; for KIDNEY_L / KIDNEY_R / KIDNEY_TOTAL: tissue Kidney; for LIVER: tissue Liver; for A/G / ALP / ALT / AST / BUN / CRE / Ca / Cl / DBIL / GLC / IP / K / LDH / Na / PL / RALB / TBIL / TC / TG / TP / gamma-GTP: tissue Plasma

COC1=CC(=O)C[C@@H](C)[C@]12Oc1c(Cl)c(OC)cc(OC)c1C2=O [GRISEOFULVIN]
TERMINAL_BW (72 h, time 3 day): 226.2 g
APTT (72 h, time 3 day): 20.3 s
Bas (72 h, time 3 day): 0%
Eos (72 h, time 3 day): 1%
Fbg (72 h, time 3 day): 209.6 mg/dL
Hb (72 h, time 3 day): 12.8 g/dL
Ht (72 h, time 3 day): 38%
Lym (72 h, time 3 day): 81.8%
MCH (72 h, time 3 day): 21.4 pg
MCHC (72 h, time 3 day): 33.6%
MCV (72 h, time 3 day): 63.5 fL
Mono (72 h, time 3 day): 2.4%
Neu (72 h, time 3 day): 15%
PT (72 h, time 3 day): 13.1 s
Plat (72 h, time 3 day): 133.8 x10_4/uL
RBC (72 h, time 3 day): 598.2 x10_4/ul
Ret (72 h, time 3 day): 6.7%
WBC (72 h, time 3 day): 92 x10_2/uL
KIDNEY_L (72 h, time 3 day): 0.9 g
KIDNEY_R (72 h, time 3 day): 0.9 g
KIDNEY_TOTAL (72 h, time 3 day): 1.9 g
LIVER (72 h, time 3 day): 10.4 g
A/G (72 h, time 3 day): 1.6
ALP (72 h, time 3 day): 917.8 IU/L
ALT (72 h, time 3 day): 35 IU/L
AST (72 h, time 3 day): 66.2 IU/L
BUN (72 h, time 3 day): 14.6 mg/dL
CRE (72 h, time 3 day): 0.4 mg/dL
Ca (72 h, time 3 day): 10.6 mg/dL
Cl (72 h, time 3 day): 104.4 meq/L
DBIL (72 h, time 3 day): 0.1 mg/dL
GLC (72 h, time 3 day): 210.8 mg/dL
IP (72 h, time 3 day): 7.7 mg/dL
K (72 h, time 3 day): 4 meq/L
LDH (72 h, time 3 day): 154 IU/L
Na (72 h, time 3 day): 141 meq/L
PL (72 h, time 3 day): 130.6 mg/dL
RALB (72 h, time 3 day): 3.3 g/dL
TBIL (72 h, time 3 day): 0.2 mg/dL
TC (72 h, time 3 day): 69 mg/dL
TG (72 h, time 3 day): 79 mg/dL
TP (72 h, time 3 day): 5.3 g/dL
gamma-GTP (72 h, time 3 day): 1.2 IU/L
TERMINAL_BW ([…], time 7 day): 261.4 g
TERMINAL_BW ([…], time 14 day): 310.7 g
TERMINAL_BW ([…], time 28 day): 391 g
APTT ([…], time 7 day): 18.8 s
Bas ([…], time 7 day): 0%
Eos ([…], time 7 day): 0.8%
Fbg ([…], time 7 day): 236 mg/dL
Hb ([…], time 7 day): 14.1 g/dL
Ht ([…], time 7 day): 42%
Lym ([…], time 7 day): 78%
MCH ([…], time 7 day): 21.7 pg
MCHC ([…], time 7 day): 33.6%
MCV ([…], time 7 day): 64.8 fL
Mono ([…], time 7 day): 3%
Neu ([…], time 7 day): 17.4%
PT ([…], time 7 day): 12.3 s
Plat ([…], time 7 day): 122.6 x10_4/uL
RBC ([…], time 7 day): 647.4 x10_4/ul
Ret ([…], time 7 day): 5.2%
WBC ([…], time 7 day): 117.8 x10_2/uL
APTT ([…], time 14 day): 19.7 s
Bas ([…], time 14 day): 0%
Eos ([…], time 14 day): 1%
Fbg ([…], time 14 day): 226.2 mg/dL
Hb ([…], time 14 day): 14.1 g/dL
Ht ([…], time 14 day): 42.2%
Lym ([…], time 14 day): 81.2%
MCH ([…], time 14 day): 20.8 pg
MCHC ([…], time 14 day): 33.4%
MCV ([…], time 14 day): 62.2 fL
Mono ([…], time 14 day): 3%
Neu ([…], time 14 day): 14.4%
PT ([…], time 14 day): 12.4 s
Plat ([…], time 14 day): 117 x10_4/uL
RBC ([…], time 14 day): 678.6 x10_4/ul
Ret ([…], time 14 day): 3%
WBC ([…], time 14 day): 116.8 x10_2/uL
APTT ([…], time 28 day): 20.6 s
Bas ([…], time 28 day): 0%
Eos ([…], time 28 day): 0.8%
Fbg ([…], time 28 day): 220 mg/dL
Hb ([…], time 28 day): 15.2 g/dL
Ht ([…], time 28 day): 44.8%
Lym ([…], time 28 day): 82.4%
MCH ([…], time 28 day): 19.7 pg
MCHC ([…], time 28 day): 34%
MCV ([…], time 28 day): 58 fL
Mono ([…], time 28 day): 2%
Neu ([…], time 28 day): 14%
PT ([…], time 28 day): 12.3 s
Plat ([…], time 28 day): 115.6 x10_4/uL
RBC ([…], time 28 day): 774.2 x10_4/ul
Ret ([…], time 28 day): 2.7%
WBC ([…], time 28 day): 130.8 x10_2/uL
KIDNEY_L ([…], time 7 day): 1.1 g
KIDNEY_R ([…], time 7 day): 1.2 g
KIDNEY_TOTAL ([…], time 7 day): 2.3 g
KIDNEY_L ([…], time 14 day): 1.2 g
KIDNEY_R ([…], time 14 day): 1.2 g
KIDNEY_TOTAL ([…], time 14 day): 2.4 g
KIDNEY_L ([…], time 28 day): 1.4 g
KIDNEY_R ([…], time 28 day): 1.4 g
KIDNEY_TOTAL ([…], time 28 day): 2.8 g
LIVER ([…], time 7 day): 12.6 g
LIVER ([…], time 14 day): 13.6 g
LIVER ([…], time 28 day): 16.1 g
A/G ([…], time 7 day): 1.6
ALP ([…], time 7 day): 944.2 IU/L
ALT ([…], time 7 day): 41.2 IU/L
AST ([…], time 7 day): 81 IU/L
BUN ([…], time 7 day): 14.6 mg/dL
CRE ([…], time 7 day): 0.4 mg/dL
Ca ([…], time 7 day): 10.8 mg/dL
Cl ([…], time 7 day): 103.4 meq/L
DBIL ([…], time 7 day): 0.1 mg/dL
GLC ([…], time 7 day): 206.8 mg/dL
IP ([…], time 7 day): 7.4 mg/dL
K ([…], time 7 day): 3.9 meq/L
LDH ([…], time 7 day): 155.4 IU/L
Na ([…], time 7 day): 142.2 meq/L
PL ([…], time 7 day): 146.6 mg/dL
RALB ([…], time 7 day): 3.5 g/dL
TBIL ([…], time 7 day): 0.2 mg/dL
TC ([…], time 7 day): 75.8 mg/dL
TG ([…], time 7 day): 112.2 mg/dL
TP ([…], time 7 day): 5.8 g/dL
gamma-GTP ([…], time 7 day): 1.2 IU/L
A/G ([…], time 14 day): 1.5
ALP ([…], time 14 day): 820.2 IU/L
ALT ([…], time 14 day): 32.8 IU/L
AST ([…], time 14 day): 55.8 IU/L
BUN ([…], time 14 day): 15 mg/dL
CRE ([…], time 14 day): 0.5 mg/dL
Ca ([…], time 14 day): 10.6 mg/dL
Cl ([…], time 14 day): 102.4 meq/L
DBIL ([…], time 14 day): 0.1 mg/dL
GLC ([…], time 14 day): 236 mg/dL
IP ([…], time 14 day): 7.3 mg/dL
K ([…], time 14 day): 4.2 meq/L
LDH ([…], time 14 day): 130.6 IU/L
Na ([…], time 14 day): 139.8 meq/L
PL ([…], time 14 day): 145.8 mg/dL
RALB ([…], time 14 day): 3.5 g/dL
TBIL ([…], time 14 day): 0.2 mg/dL
TC ([…], time 14 day): 73.6 mg/dL
TG ([…], time 14 day): 107.2 mg/dL
TP ([…], time 14 day): 5.8 g/dL
gamma-GTP ([…], time 14 day): 0.8 IU/L
A/G ([…], time 28 day): 1.5
ALP ([…], time 28 day): 889.4 IU/L
ALT ([…], time 28 day): 36.4 IU/L
AST ([…], time 28 day): 56.8 IU/L
BUN ([…], time 28 day): 15.2 mg/dL
CRE ([…], time 28 day): 0.5 mg/dL
Ca ([…], time 28 day): 10.5 mg/dL
Cl ([…], time 28 day): 102.8 meq/L
DBIL ([…], time 28 day): 0.078 mg/dL
GLC ([…], time 28 day): 240.2 mg/dL
IP ([…], time 28 day): 7.2 mg/dL
K ([…], time 28 day): 3.6 meq/L
LDH ([…], time 28 day): 155.8 IU/L
Na ([…], time 28 day): 141.2 meq/L
PL ([…], time 28 day): 132.8 mg/dL
RALB ([…], time 28 day): 3.5 g/dL
TBIL ([…], time 28 day): 0.2 mg/dL
TC ([…], time 28 day): 72.6 mg/dL
TG ([…], time 28 day): 65.4 mg/dL
TP ([…], time 28 day): 6 g/dL
gamma-GTP ([…], time 28 day): 1.2 IU/L
